Data: US12486269B2 (Aconcagua Bio, Inc., priority 2024, dated 2025)
pEC50: −log10 of the molar value.

How the values were obtained:
[1] = biological target: T1, human calcitonin receptor (CTR) (Homo sapiens, UniProt P30988); assay: Calcitonin Receptor (CTR) cAMP Assay; assay type: cell-based; settings: COS7-human CTR Clone #2 stable cell line, cAMP dynamic 2 kit, 30 min; read-out: Calcitonin Receptor cAMP Stimulation Activity: EC50
T1 construct: expressed in transfected cells; host or cells: COS-7 (COS7-human CTR Clone #2)
T1 sequence (P30988 25-474): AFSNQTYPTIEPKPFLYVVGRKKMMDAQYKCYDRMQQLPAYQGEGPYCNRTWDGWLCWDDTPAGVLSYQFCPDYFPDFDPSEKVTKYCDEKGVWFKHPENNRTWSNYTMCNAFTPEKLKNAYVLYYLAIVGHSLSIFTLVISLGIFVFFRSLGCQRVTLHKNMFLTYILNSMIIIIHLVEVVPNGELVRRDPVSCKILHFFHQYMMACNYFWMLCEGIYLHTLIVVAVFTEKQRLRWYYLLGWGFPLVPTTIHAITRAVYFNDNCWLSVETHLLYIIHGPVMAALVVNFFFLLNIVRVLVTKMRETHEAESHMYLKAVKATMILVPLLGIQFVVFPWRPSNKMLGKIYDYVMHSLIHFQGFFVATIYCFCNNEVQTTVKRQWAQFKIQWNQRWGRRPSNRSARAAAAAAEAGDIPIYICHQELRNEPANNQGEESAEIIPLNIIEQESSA
Method in brief: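 COS-7 cells stably expressing human CTR (2000 cells/well) were incubated 30 min at 37 °C with 4-fold serially diluted compound in HBSS/20 mM HEPES/0.5 mM IBMX/0.1% casein. cAMP was detected by HTRF (665/615 nm) after 1 h at RT. % activity was normalised to vehicle and positive controls.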

[2] = biological target: T2, COS-7/AMY3 (human calcitonin receptor (CTR) and RAMP3) (Homo sapiens, UniProt O60896+P30988); assay: Amylin Receptor cAMP Assay II; assay type: cell-based; settings: values marked **: Amylin Receptor cAMP Assay II; COS-7/AMY3 cells, cAMP dynamic 2 kit, 30 min; read-out: Amylin Receptor cAMP Stimulation Activity: EC50
T2 construct: expressed in transfected cells; host or cells: COS-7
T2 sequence (O60896 24-148, one chain of several): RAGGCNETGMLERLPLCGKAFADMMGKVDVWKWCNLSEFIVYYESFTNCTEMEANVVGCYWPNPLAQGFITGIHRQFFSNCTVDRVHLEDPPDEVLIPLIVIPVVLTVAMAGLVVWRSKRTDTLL
Method in brief: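 COS-7 cells stably co-expressing human CTR and RAMP3 (AMY3), 2000 cells/well in HBSS with 20 mM HEPES, 0.5 mM IBMX, 0.1% casein, stimulated with compound for 30 min at 37 °C. cAMP measured by HTRF (665/615 nm), activity normalized between vehicle and maximal control.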

COc1cccc2c1CC[C@H]2Nc1nccc2cc(-c3c4c(nc(CCC5CCOCC5)c3-c3cc(=O)[nH]o3)[C@@H]3CCCN3C4=O)sc12 [Compound 205, 5-((S)-4-(7-(((R)-4-methoxy-2,3-dihydro-1H-inden-1-yl)amino)thieno[2,3-c]pyridin-2-yl)-5-oxo-2-(2-(tetrahydro-2H-pyran-4-yl)ethyl)-7,8,9,9a-tetrahydro-5H-pyrido[2,3-a]pyrrolizin-3-yl)isoxazol-3(2H)-one]
pEC50 [1]: 8.24 | pEC50 [2]: 6.47

O=C1c2c(nc(CCC3CCOCC3)c(-c3cc(=O)[nH]o3)c2-c2cc3ccnc(NCc4ccc(F)c(F)c4)c3s2)[C@@H]2CCCN12 [Compound 206, (S)-5-(4-(7-((3,4-difluorobenzyl)amino)thieno[2,3-c]pyridin-2-yl)-5-oxo-2-(2-(tetrahydro-2H-pyran-4-yl)ethyl)-7,8,9,9a-tetrahydro-5H-pyrido[2,3-a]pyrrolizin-3-yl)isoxazol-3(2H)-one]
pEC50 [1]: 7.58 | pEC50 [2]: 5.80

COc1cccc2c1CC[C@H]2Nc1nc(C)cc2cc(-c3c4c(nc(CCc5ccc(F)cc5)c3-c3n[nH]c(=O)o3)[C@@H]3CCCN3C4=O)sc12 [Compound 207, 5-((S)-2-(4-fluorophenethyl)-4-(7-(((R)-4-methoxy-2,3-dihydro-1H-inden-1-yl)amino)-5-methylthieno[2,3-c]pyridin-2-yl)-5-oxo-7,8,9,9a-tetrahydro-5H-pyrido[2,3-a]pyrrolizin-3-yl)-1,3,4-oxadiazol-2(3H)-one]
pEC50 [1]: 9.51 | pEC50 [2]: 7.95

O=C1c2c(nc(CCc3ccc(F)cc3)c(-c3n[nH]c(=O)o3)c2-c2ccc3c(c2)oc(=O)n3Cc2ncc(Cl)cc2F)[C@@H]2CCCN12 [Compound 208, (S)-3-((5-chloro-3-fluoropyridin-2-yl)methyl)-6-(2-(4-fluorophenethyl)-5-oxo-3-(5-oxo-4,5-dihydro-1,3,4-oxadiazol-2-yl)-7,8,9,9a-tetrahydro-5H-pyrido[2,3-a]pyrrolizin-4-yl)benzo[d]oxazol-2(3H)-one]
pEC50 [1]: 9.48 | pEC50 [2]: 7.13

CC(c1ccc(C#N)c(F)c1)n1c(=O)oc2cc(-c3c4c(nc(CCc5ccc(F)cc5)c3-c3n[nH]c(=O)o3)[C@@H]3CCCN3C4=O)ccc21 (stereo partly drawn) [Compound 209, 2-fluoro-4-(1-(6-((S)-2-(4-fluorophenethyl)-5-oxo-3-(5-oxo-4,5-dihydro-1,3,4-oxadiazol-2-yl)-7,8,9,9a-tetrahydro-5H-pyrido[2,3-a]pyrrolizin-4-yl)-2-oxobenzo[d]oxazol-3(2H)-yl)ethyl)benzonitrile]
pEC50 [1]: 9.81 | pEC50 [2]: 7.77

O=C1c2c(nc(CCc3ccc(F)cc3)c(-c3n[nH]c(=O)o3)c2-c2cnc3c(ccn3Cc3ncc(F)cc3F)c2)[C@@H]2CCCN12 [Compound 210, (S)-5-(4-(1-((3,5-difluoropyridin-2-yl)methyl)-1H-pyrrolo[2,3-b]pyridin-5-yl)-2-(4-fluorophenethyl)-5-oxo-7,8,9,9a-tetrahydro-5H-pyrido[2,3-a]pyrrolizin-3-yl)-1,3,4-oxadiazol-2(3H)-one]
pEC50 [1]: 7.64 | pEC50 [2]: 6.33

O=C1c2c(nc(CCc3ccc(F)cc3)c(-c3n[nH]c(=O)o3)c2-c2cnc3c(ccn3Cc3ncc(Cl)cc3F)c2)[C@@H]2CCCN12 [Compound 211, (S)-5-(4-(1-((5-chloro-3-fluoropyridin-2-yl)methyl)-1H-pyrrolo[2,3-b]pyridin-5-yl)-2-(4-fluorophenethyl)-5-oxo-7,8,9,9a-tetrahydro-5H-pyrido[2,3-a]pyrrolizin-3-yl)-1,3,4-oxadiazol-2(3H)-one]
pEC50 [1]: 8.41 | pEC50 [2]: 6.36

COc1cccc2c1CC[C@H]2Nc1nccc2cc(-c3c(-c4n[nH]c(=O)o4)c(CCc4ccc(F)cc4)nc4c3S(=O)(=O)CC4(C)C(C)C)sc12 (stereo partly drawn) [Compound 212, 5-(5-(4-fluorophenethyl)-3-isopropyl-7-(7-(((R)-4-methoxy-2,3-dihydro-1H-inden-1-yl)amino)thieno[2,3-c]pyridin-2-yl)-3-methyl-1,1-dioxido-2,3-dihydrothieno[3,2-b]pyridin-6-yl)-1,3,4-oxadiazol-2(3H)-one]
pEC50 [1]: 6.28 | pEC50 [2]: 4.93
